Our source for the EC50 values is US9663473B2 (Actelion Pharmaceuticals Ltd, priority 2013, dated 2017).

Counter-ions that a name gives are not always drawn.

For this assay, the target named is T1, recombinant human ALX receptor (Homo sapiens, UniProt P25090).
T1 construct: expressed in transfected cells; host or cells: HEK293 (HEK293-hALXR-Gα16)
T1 sequence (P25090 1-351): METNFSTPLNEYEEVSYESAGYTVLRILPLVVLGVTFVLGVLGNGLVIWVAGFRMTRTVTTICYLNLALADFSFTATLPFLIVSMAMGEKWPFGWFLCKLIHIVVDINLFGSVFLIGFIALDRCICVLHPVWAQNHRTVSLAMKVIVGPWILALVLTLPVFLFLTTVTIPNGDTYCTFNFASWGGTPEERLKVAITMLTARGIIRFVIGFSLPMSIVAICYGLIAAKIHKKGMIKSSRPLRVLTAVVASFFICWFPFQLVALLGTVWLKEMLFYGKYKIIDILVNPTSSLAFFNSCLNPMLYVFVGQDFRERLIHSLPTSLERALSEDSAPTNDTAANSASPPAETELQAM
The assay is described as follows: Intracellular calcium measurements (FLIPR), ALX receptor agonistic activity. It counts as cell-based. To be noted: HEK293-hALXR-Gα16 cells, Fluo-4 calcium signal, normalized to WKYMVm 10 nM. The procedure, abridged: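 Agonist-induced calcium flux was read by FLIPR (488/540 nm) as baseline-subtracted peak emission, expressed relative to WKYMVm at 10 nM final. Cells used: HEK293-hALXR-Gα16, dye-loaded 60 min at 37° C. with 1 μM Fluo-4 AM before compound dose-response addition.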

For the molecule `COc1ccc(C[C@@H](NC(=O)NCCc2ccccc2C)c2nc3ccccc3[nH]2)cc1` [Example 63, (R)-1-(1-(1H-Benzo[d]imidazol-2-yl)-2-(4-methoxyphenyl)ethyl)-3-(2-methylphenethyl)urea hydrochloride], the EC50 – broadly, the concentration that produces a half-maximal response – was 105 nM. The same measure for `COc1ccc(CC(NC(=O)NCc2cccc(Cl)c2)c2nc3ccccc3[nH]2)cc1` (stereo not drawn) [Example 46, 1-(1-(1H-Benzo[d]imidazol-2-yl)-2-(4-methoxyphenyl)ethyl)-3-(3-chlorobenzyl)urea]: 601 nM; for `COc1c(F)cc(CC(NC(=O)N[C@H]2CC[C@](C)(O)CC2)c2nc3ccccc3[nH]2)cc1F` (mixture of isomers) [Example 243, 1-(1-(1H-Benzo[d]imidazol-2-yl)-2-(3,5-difluoro-4-methoxyphenyl)ethyl)-3-(trans-4-hydroxy-4-methylcyclohexyl)urea]: 155 nM; for `O=C(NC(Cc1ccc(C(F)(F)F)cc1F)c1nc2cc(F)ccc2[nH]1)N[C@H]1CC[C@H](O)CC1` (single isomer, unassigned; ent-1) [Example 363, 1-(1-(5-Fluoro-1H-benzo[d]imidazol-2-yl)-2-(2-fluoro-4-(trifluoromethyl)phenyl)ethyl)-3-(trans-4-hydroxycyclohexyl)urea (ent-1)]: 5.6 nM. In the case of `COc1ccc(C[C@@H](NC(=O)N[C@H](CC(=O)OC(C)(C)C)c2ccccc2)c2nc3ccccc3[nH]2)cc1` [Example 378, (R)-tert-Butyl 3-(3-((R)-1-(1H-benzo[d]imidazol-2-yl)-2-(4-methoxyphenyl)ethyl)ureido)-3-phenylpropanoate] it was 1470 nM; in that of `COc1ccc(C[C@@H](NC(=O)N[C@@H](CO)Cc2ccccc2)c2nc3ccccc3[nH]2)cc1` [Example 205, 1-((R)-1-(1H-Benzo[d]imidazol-2-yl)-2-(4-methoxyphenyl)ethyl)-3-((R)-1-hydroxy-3-phenylpropan-2-yl)urea], 62 nM; in that of `COc1ccc(CC(NC(=O)NC23CCC(O)(CC2)CC3)c2nc3ccccc3[nH]2)cc1F` (single isomer, unassigned; ent-1) [Example 257, 1-(1-(1H-Benzo[d]imidazol-2-yl)-2-(3-fluoro-4-methoxyphenyl)ethyl)-3-(4-hydroxybicyclo[2.2.2]octan-1-yl)urea (ent-1)], 2 nM. As to `COc1ccc(CC(NC(=O)NC23CCC(O)(CC2)CC3)c2nc3ccccc3[nH]2)c(F)c1` (single isomer, unassigned; ent-1) [Example 261, 1-(1-(1H-Benzo[d]imidazol-2-yl)-2-(2-fluoro-4-methoxyphenyl)ethyl)-3-(4-hydroxybicyclo[2.2.2]octan-1-yl)urea (ent-1)], the EC50 is 3.2 nM. `O=C(N[C@H](Cc1ccc(CF)cc1)c1nc2ccccc2[nH]1)N[C@H]1CC[C@H](O)CC1` [Example 364, 1-((R)-1-(1H-Benzo[d]imidazol-2-yl)-2-(4-(fluoromethyl)phenyl)ethyl)-3-(trans-4-hydroxycyclohexyl)urea]: the EC50 is 10 nM.

In the case of `COc1ccc(C[C@@H](NC(=O)N2CCCC2)c2nc3ccccc3[nH]2)cc1` [Example 91, (R)—N-(1-(1H-Benzo[d]imidazol-2-yl)-2-(4-methoxyphenyl)ethyl)pyrrolidine-1-carboxamide], the EC50 stood at 561 nM. With `COc1ccc(C[C@@H](NC(=O)NC2CCCCCC2)c2nc3ccccc3[nH]2)cc1` [Example 99, (R)-1-(1-(1H-Benzo[d]imidazol-2-yl)-2-(4-methoxyphenyl)ethyl)-3-cycloheptylurea], the concentration for a half-maximal effect (EC50) worked out at 57 nM. On to `COc1ccc(C[C@@H](NC(=O)NCc2ccncc2)c2nc3ccccc3[nH]2)cc1` [Example 288, (R)-1-(1-(1H-Benzo[d]imidazol-2-yl)-2-(4-methoxyphenyl)ethyl)-3-(pyridin-4-ylmethyl)urea], for which the EC50 is 853 nM.
